Measured values published in article PMC5812297, “Specificity and Application of the Lantibiotic Protease NisP” (Frontiers in Microbiology, 2018).
Ends that are not written are not given here.

Assays:
[1] = tested on: NisP; test: Cleavage of nisin mutants by NisP in crude supernatants or purified peptide, masses by MALDI-TOF; assay type: biochemical, Lactococcus lactis; details: His-tagged purified NisP, overnight 37°C, ratio 1000:1, culture pH (4.5–5.0) or pH 6.0, MALDI-TOF
Method: Alternatively, supernatants containing nisin mutant peptides produced after induction were divided into two fractions; one in which the pH was adjusted to 6.0 and the other one where the pH was the actual fermentation pH. They were incubated overnight at 37°C with or without His-tagged purified NisP at a ratio of 1000:1. After the incubation, the supernatants were precipitated using TCA and resuspended in 1/20 volume 0.05% acetic acid. For the mutants that were produced in lower amounts, larger volumes were induced and the peptides were purified by cationic exchange chromatography as described before and separated by reverse phase chromatography using a Jupiter 4 μm Proteo 90 Å 250 × 4.6 mm C12 analytical column (Phenomenex). The column was equilibrated in 20% organic solvent (acetonitrile 0.1% TFA) before the sample injection. It was washed for 5 min before applying a linear gradient from 20 to 50% organic solvent in 20 min. 1 μl of each collected peak was used for mass-spectrometry determination.
Mass spectrometry analysis of the samples was performed by matrix-assisted laser desorption/ionization (MALDI) time-of-flight (ToF) in an ABI Voyager DE Pro (Applied Biosystems) operating in linear mode as previously described using external calibration (van Heel et al., [2013]). Briefly, 1 μl sample was spotted, dried and washed with 5 μL Milli-Q water, on the target. Next, 1 μl of α-cyano-4-hydroxycinnamic acid 5 mg/ml (Sigma-Aldrich) was spotted on the sample.
We designed a set of nisin mutants to investigate the specificity of NisP (Figure 4). For all these mutants, supernatants were collected after induction and divided into three fractions. NisP was added to two of these fractions, one maintaining the pH of the culture (4.5–5.0) and the other fraction was adjusted to pH 6.0. The third fraction was used as an untreated control. After cleavage, the masses of the peptides were monitored by MALDI-TOF (Table 2).

[2] = tested on: sensor bacteria; details: only antimicrobial activity as evidence, ref Kuipers et al., [1995]; cited from earlier work
Text: It was anticipated that the binding of dehydrobutyrine in position P2′ was less important than the interaction of Ile in position P1′ with a hydrophobic groove in NisP (Siezen et al., [1995]). Some mutants like I1W were previously shown to be cut by NisP using only the antimicrobial activity as evidence (Kuipers et al., [1995]). […] We could observe that an ...

[3] = tested on: prenisin; details: cell extracts of induced E. coli, ref van der Meer et al., [1993]; cited from earlier work
Text: During the production of nisin, the protease NisP is exported and anchored to the cell wall in a sortase-mediated manner. In previous attempts to characterize the specificity of NisP, the in vivo cleavage was based on the detection of the antimicrobial activity and the detection of mature lantibiotic compared to that of the prelantibiotic (van der Meer et al., [1994]). The activity in vitro could be confirmed using membrane preparations of cells expressing NisP bound to the cell wall, which limited the assays. Therefore, we engineered a soluble NisP variant that could facilitate this task. Our ...

Molecule | Cleavage by NisP [1] | Cleavage by NisP (earlier work) [2] | Activation of prenisin [3]
nisin I1W: Nisin I1W mutant (MSTKDFNLDLVSVSKKDSGASPRWTSISLCTPGCKTGALMGCNMKTATCHCSIHVSK; ends and bridges not checked; cysteine pairing not given here; UniProt P13068 1-57, looked up, variant I1W) | fully processed | cut by NisP | –
cell wall attached NisP: full length NisP expressed in E. coli (van der Meer et al., 1993) (protein, UniProt Q07596 1-682, looked up, full-length) MKKILGFLFIVCSLGLSATVHGETTNSQQLLSNNINTELINHNSNAILSSTEGSTTDSINLGAQSPAVKSTTRTELDVTGAAKTLLQTSAVQKEMKVSLQETQVSSEFSKRDSVTNKEAVPVSKDELLEQSEVVVSTSSIQKNKILDNKKKRANFVTSSPLIKEKPSNSKDASGVIDNSASPLSYRKAKEVVSLRQPLKNQKVEAQPLLISNSSEKKASVYTNSHDFWDYQWDMKYVTNNGESYALYQPSKKISVGIIDSGIMEEHPDLSNSLGNYFKNLVPKGGFDNEEPDETGNPSDIVDKMGHGTEVAGQITANGNILGVAPGITVNIYRVFGENLSKSEWVARAIRRAADDGNKVINISAGQYLMISGSYDDGTNDYQEYLNYKSAINYATAKGSIVVAALGNDSLNIQDNQTMINFLKRFRSIKVPGKVVDAPSVFEDVIAVGGIDGYGNISDFSNIGADAIYAPAGTTANFKKYGQDKFVSQGYYLKDWLFTTANTGWYQYVYGNSFATPKVSGALALVVDKYGIKNPNQLKRFLLMNSPEVNGNRVLNIVDLLNGKNKAFSLDTDKGQDDAINHKSMENLKESRDTMKQEQDKEIQRNTNNNFSIKNDFHNISKEVISVDYNINQKMANNRNSRGAVSVRSQEILPVTGDGEDFLPALGIVCISILGILKRKTKN | – | – | could activate prenisin
